This is an account of results in BindingDB's records for doi:10.1021/jm048962u (The Burnham Institute, 2005).

The assay has as its target RAC-alpha serine/threonine-protein kinase (Homo sapiens, UniProt P31749). As to the kind of experiment: Z-LYTE Kinase Assy. Conditions: pH 7.5; 25 °C. The source says:
The Z-LYTE assay (Invitrogen Corporation) employs a FRET-based, coupled-enzyme format and is based on the differential sensitivity of phosphorylated and non-phosphorylated peptides to proteolytic cleavage. A site-specific protease recognizes and cleaves nonphosphorylated peptides. […] Cleavage disrupts FRET between the donor (coumarin) and acceptor (fluorescein) fluorophores on the peptide, whereas uncleaved, phosphorylated peptides maintain FRET. The ratio of donor emission to acceptor emission after excitation of the donor fluorophore at 400 nm, quantitates reaction progress.

One may read the IC50 as the concentration that gives 50% inhibition. A lower IC50 goes with inhibition by little substance. The Ki is the equilibrium dissociation constant of an inhibitor or competing ligand from its target. A high value points to a looser hold on the target.

RAC-alpha serine/threonine-protein kinase, sequence (P31749 whole entry): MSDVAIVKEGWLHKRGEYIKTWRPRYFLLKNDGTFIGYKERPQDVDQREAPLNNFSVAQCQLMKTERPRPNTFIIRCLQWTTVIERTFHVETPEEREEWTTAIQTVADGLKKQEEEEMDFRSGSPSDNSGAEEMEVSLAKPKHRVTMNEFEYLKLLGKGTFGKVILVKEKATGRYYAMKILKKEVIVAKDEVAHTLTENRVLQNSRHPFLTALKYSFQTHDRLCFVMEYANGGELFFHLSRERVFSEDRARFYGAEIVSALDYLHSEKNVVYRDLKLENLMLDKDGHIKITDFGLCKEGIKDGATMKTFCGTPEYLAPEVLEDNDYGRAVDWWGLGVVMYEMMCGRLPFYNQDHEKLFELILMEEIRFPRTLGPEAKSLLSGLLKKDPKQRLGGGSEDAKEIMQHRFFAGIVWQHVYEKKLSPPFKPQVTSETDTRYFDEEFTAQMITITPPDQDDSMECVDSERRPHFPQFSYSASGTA

`C=c1c(C#N)c2[nH]c(N)c(C#N)c(C)c-2c1=Cc1ccc(-c2cccc(C(=O)O)c2)o1` [3-(5-{[(5E)-2-amino-3,7-dicyano-4,6-dimethyl-5H-cyclopenta[b]pyridin-5-ylidene]methyl}furan-2-yl)benzoic acid] had an IC50 of 60200 nM.

Consider `C=c1c(C#N)c2[nH]c(N)c(C#N)c(C)c-2c1=Cc1ccc(-c2ccc(C(=O)O)c(Cl)c2)o1`, for which it took 2600 nM to reach half-maximal inhibition (IC50) and the affinity corresponds to a Ki of 1100 nM.
